Measurements reported in patent publication US11912693B2, “Compounds for modulating S1P1 activity and methods of using the same” (TREVENA, INC., priority 2017, dated 2024).

Columns and labels:
[1] = target: T1, human sphingosine-1-phosphate receptor 1 (S1P1) (Homo sapiens (Human), UniProt P21453); assay: Inhibition of cAMP production (HTRF cAMP HiRange), S1P1 CHO-K1 cells; format: cell-based; conditions: for Emax: CHO-K1, efficacy (SPAN) normalized to fingolimod, read-out: hS1P1 cAMP SPAN; for hS1P1 cAMP pEC50: inhibition of cAMP production, S1P1 CHO-K1 cells
Method in brief: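 CHO-K1 cells stably co-expressing human S1P1 (C-terminal Prolink tag) and EA-β-arrestin2 were grown in AssayComplete Media 6 at 37° C. and 5% CO2, plated, and incubated overnight. Agonist-driven inhibition of intracellular cAMP was read by TR-FRET with the HTRF cAMP HiRange kit on a PheraStar reader. Potency is pEC50, and efficacy (SPAN) is normalized to fingolimod.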
Target sequence in this assay (P21453 whole entry, looked up): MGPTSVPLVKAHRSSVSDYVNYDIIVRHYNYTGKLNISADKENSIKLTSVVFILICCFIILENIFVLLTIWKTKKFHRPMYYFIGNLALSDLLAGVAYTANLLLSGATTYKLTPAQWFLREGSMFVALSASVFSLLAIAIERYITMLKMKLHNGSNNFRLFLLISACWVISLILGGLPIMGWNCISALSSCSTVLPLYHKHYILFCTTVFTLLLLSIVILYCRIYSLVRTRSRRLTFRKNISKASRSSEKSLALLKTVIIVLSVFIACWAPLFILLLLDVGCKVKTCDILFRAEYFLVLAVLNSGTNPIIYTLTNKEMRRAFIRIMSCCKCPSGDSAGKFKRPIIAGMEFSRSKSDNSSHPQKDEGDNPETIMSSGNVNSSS

[2] = target: T1, human sphingosine-1-phosphate receptor 1 (S1P1); assay: β-Arrestin2 recruitment assay (PathHunter), S1P1 CHO-K1 cells; format: cell-based; conditions: for Emax: CHO-K1, efficacy (SPAN) normalized to fingolimod, read-out: hS1P1 B-arrestin2 SPAN; for hS1P1 B-arrestin2 pEC50: β-arrestin2 recruitment, S1P1 CHO-K1 cells
Method in brief: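 Enzyme-fragment complementation read-out: agonist-driven β-arrestin2 binding to ProLink-tagged human S1P1 in stable CHO-K1 cells restores β-galactosidase, measured 1 h at room temperature after a 60 min 37° C. compound incubation. Potency as pEC50, efficacy relative to fingolimod (SPAN).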
Target sequence in this assay (P21453 whole entry, looked up): as above
Target sequence in this assay (P32121 whole entry partner, looked up): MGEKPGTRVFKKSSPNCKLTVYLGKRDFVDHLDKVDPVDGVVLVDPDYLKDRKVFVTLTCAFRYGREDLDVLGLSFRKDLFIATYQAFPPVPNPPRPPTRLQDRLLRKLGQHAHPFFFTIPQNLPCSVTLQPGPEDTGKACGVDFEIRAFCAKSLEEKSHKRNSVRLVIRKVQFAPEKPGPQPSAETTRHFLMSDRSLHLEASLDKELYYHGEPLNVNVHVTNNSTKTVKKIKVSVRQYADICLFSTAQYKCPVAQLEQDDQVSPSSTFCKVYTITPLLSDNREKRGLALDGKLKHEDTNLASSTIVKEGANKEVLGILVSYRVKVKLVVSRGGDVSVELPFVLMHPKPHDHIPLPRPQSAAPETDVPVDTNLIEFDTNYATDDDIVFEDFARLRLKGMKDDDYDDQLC

Row | Compound | Emax [1] [%] | hS1P1 cAMP pEC50 [1] | Emax [2] [%] | hS1P1 B-arrestin2 pEC50 [2]
1 | CCC1(CC)CC(=O)c2cc(-c3nc(-c4ccc[nH]4)no3)ccc2O1 [Compound 464, 6-(3-(1H-pyrrol-2-yl)-1,2,4-oxadiazol-5-yl)-2,2-diethylchroman-4-one] | – | >6.5 | – | <5
2 | CCC1(CC)CC(=O)c2cc(-c3nc(-c4ccco4)no3)ccc2O1 [Compound 465, 2,2-diethyl-6-(3-(furan-2-yl)-1,2,4-oxadiazol-5-yl)chroman-4-one] | – | >6.5 | – | >5
3 | CCC1(CC)CC(=O)c2cc(-c3nc(-c4cnc[nH]4)no3)ccc2O1 [Compound 466, 6-(3-(1H-imidazol-5-yl)-1,2,4-oxadiazol-5-yl)-2,2-diethylchroman-4-one] | – | <6.5 | – | <5
4 | CCC1(CC)CC(=O)c2cc(-c3nc(-c4ccsc4)no3)ccc2O1 [Compound 468, 2,2-diethyl-6-(3-(thiophen-3-yl)-1,2,4-oxadiazol-5-yl)chroman-4-one] | – | >6.5 | – | >5
5 | CCC1(CC)CC(=O)c2cc(-c3nc(-c4ccn[nH]4)no3)ccc2O1 [Compound 470, 6-(3-(1H-pyrazol-5-yl)-1,2,4-oxadiazol-5-yl)-2,2-diethylchroman-4-one] | – | <6.5 | – | <5
6 | CC(C)Nc1ccc(-c2nnc(-c3ccc4c(c3)CCC(=O)N4)o2)cc1C#N [Compound 473, 5-[5-(2-oxo-1,2,3,4-tetrahydroquinolin-6-yl)-1,3,4-oxadiazol-2-yl]-2-[(propan-2-yl)amino]benzonitrile] | – | >6.5 | – | >5
7 | N#Cc1cc(-c2nnc(-c3ccc4c(c3)CCC(=O)N4)o2)ccc1NCC1CC1 [Compound 475, 2-[(cyclopropylmethyl)amino]-5-[5-(2-oxo-1,2,3,4-tetrahydroquinolin-6-yl)-1,3,4-oxadiazol-2-yl]benzonitrile] | – | >6.5 | – | >5
8 | N#Cc1cc(-c2nnc(-c3ccc4c(c3)CCC(=O)N4)o2)ccc1NCCF [Compound 476, 2-[(2-fluoroethyl)amino]-5-[5-(2-oxo-1,2,3,4-tetrahydroquinolin-6-yl)-1,3,4-oxadiazol-2-yl]benzonitrile] | – | >6.5 | – | >5
9 | N#Cc1cc(-c2nnc(-c3ccc4c(c3)CCC(=O)N4)o2)ccc1NCC(F)F [Compound 477, 2-[(2,2-difluoroethyl)amino]-5-[5-(2-oxo-1,2,3,4-tetrahydroquinolin-6-yl)-1,3,4-oxadiazol-2-yl]benzonitrile] | – | >6.5 | – | >5
10 | O=C1CC(CO)(CO)Oc2ccc(-c3nc(-c4cccnc4)no3)cc21 [Compound 478, 2,2-bis(hydroxymethyl)-6-[3-(pyridin-3-yl)-1,2,4-oxadiazol-5-yl]-3,4-dihydro-2H-1-benzopyran-4-one] | – | <6.5 | – | <5
11 | O=C1c2cc(-c3nc(-c4cccnc4)no3)ccc2OC(CO)(CO)C1Br (stereo not drawn) [Compound 479, 3-bromo-2,2-bis(hydroxymethyl)-6-[3-(pyridin-3-yl)-1,2,4-oxadiazol-5-yl]-3,4-dihydro-2H-1-benzopyran-4-one] | – | <6.5 | – | <5
12 | O=C1CC(CO)(CO)Oc2ccc(-c3nc(-c4ccncc4)no3)cc21 [Compound 482, 2,2-bis(hydroxymethyl)-6-[3-(pyridin-4-yl)-1,2,4-oxadiazol-5-yl]-3,4-dihydro-2H-1-benzopyran-4-one] | – | <6.5 | – | <5
13 | O=C1c2cc(-c3nc(-c4ccncc4)no3)ccc2OC(CO)(CO)C1Br (stereo not drawn) [Compound 483, 3-bromo-2,2-bis(hydroxymethyl)-6-[3-(pyridin-4-yl)-1,2,4-oxadiazol-5-yl]-3,4-dihydro-2H-1-benzopyran-4-one] | – | <6.5 | – | <5
14 | CC(C)Nc1ccc(-c2nnc(-c3ccc4[nH]c(=O)oc4c3)o2)cc1C#N [Compound 484, 5-[5-(2-oxo-2,3-dihydro-1,3-benzoxazol-6-yl)-1,3,4-oxadiazol-2-yl]-2-[(propan-2-yl)amino]benzonitrile] | – | >6.5 | – | >5
15 | CCC1(CC)CC(=O)c2cc(-c3nc(-c4cc[nH]c4)no3)ccc2O1 [Compound 485, 6-(3-(1H-pyrrol-3-yl)-1,2,4-oxadiazol-5-yl)-2,2-diethylchroman-4-one] | – | >6.5 | – | <5

More lines, now with the values ahead:

Row | Emax [1] [%] | hS1P1 cAMP pEC50 [1] | Emax [2] [%] | hS1P1 B-arrestin2 pEC50 [2] | Compound
16 | > 75 | >6.5 | > 75 | >5 | COc1cccc2oc(-c3ccc4c(c3)nnn4CC(C)C)nc12 [Compound 450, 2-(1-isobutyl-1H-benzo[d][1,2,3]triazol-5-yl)-4-methoxybenzo[d]oxazole]
17 | < 75 | >6.5 | < 75 | >5 | COc1ccc2oc(-c3ccc4c(c3)nnn4CC(C)C)nc2c1 [Compound 451, 2-(1-isobutyl-1H-benzo[d][1,2,3]triazol-5-yl)-5-methoxybenzo[d]oxazole]
18 | > 75 | <6.5 | < 75 | >5 | COc1ccc2nc(-c3ccc4c(c3)nnn4CC(C)C)oc2c1 [Compound 452, 2-(1-isobutyl-1H-benzo[d][1,2,3]triazol-5-yl)-6-methoxybenzo[d]oxazole]
19 | – | >6.5 | – | >5 | CC(C)Cn1nnc2cc(-c3nc4c(Cl)cccc4o3)ccc21 [Compound 453, 4-chloro-2-(1-isobutyl-1H-benzo[d][1,2,3]triazol-5-yl)benzo[d]oxazole]
20 | – | >6.5 | – | >5 | CC(C)Cn1nnc2cc(-c3nc4cccc(Br)c4o3)ccc21 [Compound 454, 7-bromo-2-(1-isobutyl-1H-benzo[d][1,2,3]triazol-5-yl)benzo[d]oxazole]
21 | > 75 | >6.5 | > 75 | <5 | CC(C)n1nnc2cc(-c3nc4c(o3)CCc3sccc3-4)ccc21 [Compound 456, 4-[1-(propan-2-yl)-1H-1,2,3-benzotriazol-5-yl]-5-oxa-10-thia-3-azatricyclo[7.3.0.0^2,6]dodeca-1(9),2(6),3,11-tetraene]
22 | > 75 | >6.5 | > 75 | <5 | CC(C)n1nnc2cc(-c3nc4c(ccc5sccc54)o3)ccc21 [Compound 457, 4-[1-(propan-2-yl)-1H-1,2,3-benzotriazol-5-yl]-5-oxa-10-thia-3-azatricyclo[7.3.0.0^2,6]dodeca-1(9),2(6),3,7,11-pentaene]
23 | < 75 | <6.5 | < 75 | <5 | CC(=O)Nc1ccccc1-c1coc(-c2ccc3c(c2)nnn3C(C)C)n1 [Compound 458, N-(2-{2-[1-(propan-2-yl)-1H-1,2,3-benzotriazol-5-yl]-1,3-oxazol-4-yl}phenyl)acetamide]
24 | > 75 | <6.5 | > 75 | <5 | CC(C)n1nnc2cc(-c3nc(-c4cccs4)co3)ccc21 [Compound 459, 1-(propan-2-yl)-5-[4-(thiophen-2-yl)-1,3-oxazol-2-yl]-1H-1,2,3-benzotriazole]
25 | > 75 | <6.5 | > 75 | <5 | CC(C)(O)Cn1nnc2cc(-c3nc(-c4ccncc4C(F)(F)F)no3)ccc21 [Compound 460, 2-methyl-1-(5-{3-[3-(trifluoromethyl)pyridin-4-yl]-1,2,4-oxadiazol-5-yl}-1H-1,2,3-benzotriazol-1-yl)propan-2-ol]
26 | > 75 | <6.5 | > 75 | <5 | CC(C)Cn1nnc2cc(-c3nc4c(Br)cccc4o3)ccc21 [Compound 461, 4-bromo-2-(1-isobutyl-1H-benzo[d][1,2,3]triazol-5-yl)benzo[d]oxazole]
27 | > 75 | >6.5 | > 75 | <5 | CC(C)n1nnc2cc(-c3nc4c(o3)COc3ccccc3-4)ccc21 [Compound 462, 5-{4H-chromeno[4,3-d][1,3]oxazol-2-yl}-1-(propan-2-yl)-1H-1,2,3-benzotriazole]
28 | – | >6.5 | – | >5 | CCC1(CC)CC(=O)c2cc(-c3nc(-c4cccs4)no3)ccc2O1 [Compound 467, 2,2-diethyl-6-(3-(thiophen-2-yl)-1,2,4-oxadiazol-5-yl)chroman-4-one]
29 | > 75 | <6.5 | > 75 | <5 | CC(C)n1nnc2cc(-c3nc(-c4ccccn4)co3)ccc21 [Compound 474, 1-(propan-2-yl)-5-[4-(pyridin-2-yl)-1,3-oxazol-2-yl]-1H-1,2,3-benzotriazole]
30 | – | <6.5 | – | <5 | CC1(C)Oc2ccc(-c3nc(-c4ccncc4)no3)cc2C1=O [Compound 480, 2,2-dimethyl-5-[3-(pyridin-4-yl)-1,2,4-oxadiazol-5-yl]-2,3-dihydro-1-benzofuran-3-one]
31 | – | <6.5 | – | >5 | CC1(C)Oc2ccc(-c3nc(-c4cccnc4)no3)cc2C1=O [Compound 481, 2,2-dimethyl-5-[3-(pyridin-3-yl)-1,2,4-oxadiazol-5-yl]-2,3-dihydro-1-benzofuran-3-one]
